Type in all cases: cell-based
In experiment [1] the target is T1, hGLP-1R (Homo sapiens, UniProt P43220). Nature of the experiment: Functional cAMP activation in the presence of 0.1% casein (no HSA). The following applies: read-out: Relative cAMP EC50, hGLP-1R.
For the next experiment, the target named is hGcgR (Homo sapiens, UniProt P47871). The experiment is described as above. The note with it: read-out: Relative cAMP EC50, hGcgR.
Experiment [2] deals with T2, hGIPR (Homo sapiens, UniProt P48546).
T2 sequence (P48546 22-466): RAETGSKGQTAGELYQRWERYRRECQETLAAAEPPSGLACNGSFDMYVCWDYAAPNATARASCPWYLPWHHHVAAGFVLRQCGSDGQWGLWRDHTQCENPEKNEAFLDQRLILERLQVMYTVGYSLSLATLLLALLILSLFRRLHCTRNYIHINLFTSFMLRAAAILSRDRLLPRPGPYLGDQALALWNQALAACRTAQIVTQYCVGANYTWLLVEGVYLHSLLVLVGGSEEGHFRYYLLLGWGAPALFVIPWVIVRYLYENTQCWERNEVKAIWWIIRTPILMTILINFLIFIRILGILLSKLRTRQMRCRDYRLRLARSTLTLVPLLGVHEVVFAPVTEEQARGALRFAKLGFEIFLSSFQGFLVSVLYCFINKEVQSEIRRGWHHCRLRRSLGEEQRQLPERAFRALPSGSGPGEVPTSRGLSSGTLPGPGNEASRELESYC
Nature of the experiment: Functional cAMP activity in the presence of 1% HSA. The following applies: read-out: cAMP Rel EC50, hGIPR.

Experiment [3] deals with T2, hGIPR. The experiment can be described thus: Functional cAMP activation in the presence of 0.1% casein (no HSA). The note with it: read-out: Relative cAMP EC50, hGIPR.
In another experiment the target is human GcgR (Homo sapiens, UniProt P47871). Nature of the experiment: Functional cAMP activity in the presence of 1% HSA. The note with it: read-out: cAMP Rel EC50, hGcgR.
Experiment [4] concerns the target T1, hGLP-1R. Nature of the experiment: Functional cAMP activity in the presence of 1% HSA. The note with it: read-out: cAMP Rel EC50, hGLP-1R.
Where [5] appears, read: in the presence of 0.1% casein (no HSA), geometric mean.

Like-named read-outs stand apart in the source and are kept apart here. Starred links: 1 amine or outer side, 2 acyl side, 3 side chain; linkers in the order of their positions; H or OH if unused. Non-standard residues stand in square brackets, D forms with d. Residues, ends and D or L forms follow the SMILES beside them. Groups on a side chain read outwards from the residue. No end group written: not given here. *: point of attachment. C18 diacid = O=C(O)CCCCCCCCCCCCCCCCC(=O)*; αMePhe(2-F) = C[C@](N)(Cc1ccccc1F)C(=O)O; γGlu = O=C(O)[C@H](CCC(=O)[*:2])N[*:1]; αMe4Pal = C[C@](N)(Cc1ccncc1)C(=O)O; αMeY = C[C@](N)(Cc1ccc(O)cc1)C(=O)O; αMeF = C[C@](N)(Cc1ccccc1)C(=O)O; 4Pal = N[C@@H](Cc1ccncc1)C(=O)O; αMeL = CC(C)C[C@](C)(N)C(=O)O; αMeS = C[C@](N)(CO)C(=O)O; Orn = NCCC[C@H](N)C(=O)O; AEEA = NCCOCCOCC(=O)O; Aib = CC(C)(N)C(=O)O
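Wherever Relative cAMP EC50, hGIPR is given: intracellular cAMP rise after 30 min at 37 °C read by HTRF against a standard curve, scaled between buffer alone (0%) and top control ligand concentration (100%), four-parameter fit.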
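Wherever Relative cAMP EC50, hGLP-1R is given: intracellular cAMP rise after 30 min at 37 °C read by HTRF, normalized between buffer only (0%) and maximal control ligand (100%), four-parameter variable-slope fit.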
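Wherever Relative cAMP EC50, hGcgR is given: intracellular cAMP rise after 30 min at 37 °C, read by HTRF against a cAMP standard curve, scaled from buffer only (0%) to maximal control ligand response (100%).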

T1 sequence (P43220 24-463): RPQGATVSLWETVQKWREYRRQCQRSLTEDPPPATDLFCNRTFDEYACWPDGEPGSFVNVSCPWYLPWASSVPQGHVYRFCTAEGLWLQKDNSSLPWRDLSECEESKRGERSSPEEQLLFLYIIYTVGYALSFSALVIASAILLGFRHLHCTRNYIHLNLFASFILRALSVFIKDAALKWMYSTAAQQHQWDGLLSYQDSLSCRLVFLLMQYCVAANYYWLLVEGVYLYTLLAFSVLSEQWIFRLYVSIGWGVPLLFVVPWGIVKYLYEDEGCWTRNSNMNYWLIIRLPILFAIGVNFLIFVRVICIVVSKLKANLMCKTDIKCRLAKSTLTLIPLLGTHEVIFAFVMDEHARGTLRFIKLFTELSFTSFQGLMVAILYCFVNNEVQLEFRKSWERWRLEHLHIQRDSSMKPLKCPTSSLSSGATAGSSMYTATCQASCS
hGcgR, sequence (P47871 26-477): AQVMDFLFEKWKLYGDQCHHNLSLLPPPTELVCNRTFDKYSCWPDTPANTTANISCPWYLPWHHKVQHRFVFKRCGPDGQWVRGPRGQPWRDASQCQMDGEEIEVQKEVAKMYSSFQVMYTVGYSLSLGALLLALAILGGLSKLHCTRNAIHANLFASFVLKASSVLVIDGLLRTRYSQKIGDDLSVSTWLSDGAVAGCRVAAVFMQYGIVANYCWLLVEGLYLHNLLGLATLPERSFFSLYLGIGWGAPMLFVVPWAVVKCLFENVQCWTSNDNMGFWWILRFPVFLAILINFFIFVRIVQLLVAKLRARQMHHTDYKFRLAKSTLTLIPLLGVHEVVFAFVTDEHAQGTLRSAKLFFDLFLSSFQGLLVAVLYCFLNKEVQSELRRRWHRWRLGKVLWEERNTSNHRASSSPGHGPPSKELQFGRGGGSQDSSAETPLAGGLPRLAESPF
human GcgR, sequence (P47871 26-477): as above

For the compound `CC[C@H](C)[C@H](NC(=O)[C@H](Cc1ccccc1)NC(=O)[C@H](C)NC(=O)C(C)(C)NC(=O)[C@H](CCC(N)=O)NC(=O)[C@H](C)NC(=O)[C@H](CCCCNC(=O)CC[C@H](NC(=O)CC[C@H](NC(=O)CCCCCCCCCCCCCCCCC(=O)O)C(=O)O)C(=O)O)NC(=O)[C@H](CCCCN)NC(=O)[C@H](CC(=O)O)NC(=O)[C@H](CC(C)C)NC(=O)[C@H](CC(C)C)NC(=O)[C@@H](NC(=O)[C@H](CO)NC(=O)[C@H](Cc1ccncc1)NC(=O)[C@H](CC(=O)O)NC(=O)[C@H](CO)NC(=O)[C@@H](NC(=O)[C@](C)(Cc1ccccc1F)NC(=O)[C@@H](NC(=O)CNC(=O)[C@H](CCC(N)=O)NC(=O)C(C)(C)NC(=O)[C@@H](N)Cc1ccc(O)cc1)[C@@H](C)O)[C@@H](C)O)[C@@H](C)CC)C(=O)N[C@@H](CCC(=O)O)C(=O)N[C@@H](Cc1ccc(O)cc1)C(=O)N[C@@H](CC(C)C)C(=O)N[C@@H](CCC(=O)O)C(=O)N[C@@H](CCC(=O)O)C(=O)NCC(=O)NCC(=O)N1CCC[C@H]1C(=O)N[C@@H](CO)C(=O)N[C@@H](CO)C(=O)NCC(=O)N[C@@H](C)C(=O)N1CCC[C@H]1C(=O)N1CCC[C@H]1C(=O)N1CCC[C@H]1C(=O)N[C@@H](CO)C(N)=O` [Example 413] (H-Y[Aib]QGT[αMePhe(2-F)]TSD[4Pal]SILLDKK([γGlu-γGlu-C18 diacid])AQ[Aib]AFIEYLEEGGPSSGAPPPS-NH2), the EC50 on hGLP-1R [1] turned out to be 0.564 nM; on hGcgR, 6.3 nM; at hGIPR [2], 23.5 nM; at hGIPR [3], 0.0881 nM; on human GcgR, 629 nM; on hGLP-1R [4] it was 41.4 nM.

In the case of `CC[C@H](C)[C@H](NC(=O)[C@H](Cc1ccccc1)NC(=O)[C@H](CCCN)NC(=O)C(C)(C)NC(=O)[C@H](CCC(N)=O)NC(=O)[C@H](C)NC(=O)[C@H](CCCCNC(=O)COCCOCCNC(=O)CC[C@H](NC(=O)CC[C@H](NC(=O)CCCCCCCCCCCCCCCCC(=O)O)C(=O)O)C(=O)O)NC(=O)[C@H](CCCN)NC(=O)[C@H](CC(=O)O)NC(=O)[C@H](CC(C)C)NC(=O)[C@](C)(CC(C)C)NC(=O)[C@@H](NC(=O)[C@](C)(CO)NC(=O)[C@H](Cc1ccncc1)NC(=O)[C@H](CC(=O)O)NC(=O)[C@H](CO)NC(=O)[C@@H](NC(=O)[C@](C)(Cc1ccccc1F)NC(=O)[C@@H](NC(=O)CNC(=O)[C@H](CCC(N)=O)NC(=O)C(C)(C)NC(=O)[C@@H](N)Cc1ccc(O)cc1)[C@@H](C)O)[C@@H](C)O)[C@@H](C)CC)C(=O)N[C@H](CCC(=O)O)C(=O)N[C@@](C)(Cc1ccc(O)cc1)C(=O)N[C@@H](CC(C)C)C(=O)N[C@@H](CC(C)C)C(=O)N[C@@H](CCC(=O)O)C(=O)NCC(=O)NCC(=O)N1CCC[C@H]1C(=O)N[C@@H](CO)C(=O)N[C@@H](CO)C(=O)NCC(=O)N[C@@H](CCC(=O)O)C(=O)N1CCC[C@H]1C(=O)N1CCC[C@H]1C(=O)N1CCC[C@H]1C(=O)N[C@@H](CO)C(N)=O` [Example 376] (H-Y[Aib]QGT[αMePhe(2-F)]TSD[4Pal][αMeS]I[αMeL]LD[Orn]K([AEEA-γGlu-γGlu-C18 diacid])AQ[Aib][Orn]FI[dE][αMeY]LLEGGPSSGEPPPS-NH2), the EC50 on hGLP-1R [1] (setting [5]) was 0.445 nM; at hGcgR (setting [5]), 1.71 nM; at hGIPR [2] it was 5.42 nM; at hGIPR [3] (setting [5]), 0.0354 nM; on human GcgR it was 115 nM; at hGLP-1R [4], 26 nM.

Regarding “H-Y[Aib]QGTFTSD[4Pal]SQ[αMeL]LDKK([AEEA-γGlu-C18 diacid])AQ[αMe4Pal]QFIE[αMeY]LIEGGPSSGAPPPSGS-NH2 [Example 855]”, the EC50 on hGLP-1R [1] (setting [5]) is 0.908 nM; on hGcgR (setting [5]), 2.67 nM; at hGIPR [2], 46.1 nM; on hGIPR [3] (setting [5]), 0.271 nM; at human GcgR it was 1030 nM; on hGLP-1R [4], 207 nM.

As to “Y[Aib]QGT[αMePhe(2-F)]TSDYSILLDKK([γGlu-γGlu-C18 diacid])AQ[Aib]AFIEYLEEGGPSSGAPPPSGE-NH2 [Example 435]”, the EC50 on hGLP-1R [1] turned out to be 0.311 nM; at hGcgR, 3.01 nM; on hGIPR [2], 10.3 nM; on hGIPR [3] it was 0.0239 nM; at human GcgR it was 334 nM; at hGLP-1R [4], 33.6 nM.

As for “H-Y[Aib]QGT[αMePhe(2-F)]TSD[4Pal][αMeS]I[αMeL]LD[Orn]K([γGlu-γGlu-C18 diacid])AQ[Aib][Orn]FI[dE][αMeY]LSEGGPSSGEPPPSGSE-NH2 [Example 560]”, the EC50 on hGLP-1R [1] amounted to 0.883 nM; at hGcgR it was 3.8 nM; on hGIPR [2], 7.94 nM; at hGIPR [3], 0.113 nM; at human GcgR, 355 nM; on hGLP-1R [4], 52 nM.

For “H-Y[Aib]QGT[αMePhe(2-F)]TSD[4Pal]SI[αMeL]LD[Orn]K([γGlu-γGlu-C18 diacid])AQ[αMe4Pal][Orn]FI[dE][αMeY]LIEGGPSSGEPPPEAE-NH2 [Example 684]”, the EC50 on hGLP-1R [1] is 0.28 nM; at hGcgR, 2.16 nM; at hGIPR [2], 0.436 nM; on hGIPR [3], 0.00843 nM; on human GcgR it was 143 nM; at hGLP-1R [4], 14.2 nM.

With “H-Y[Aib]QGTFTSD[4Pal]SK[αMeL]LDKK([γGlu-γGlu-C18 diacid])AQ[Aib]AFIEYLIE[Aib]GPSSGAPPPSGSEE-NH2 [Example 905]”, the half-maximal effective concentration (EC50) worked out at 2.52 nM at hGLP-1R [1] (setting [5]); 12.3 nM at hGcgR (setting [5]); 10.4 nM at hGIPR [2]; 0.217 nM at hGIPR [3] (setting [5]); 1390 nM on human GcgR; 215 nM at hGLP-1R [4].

Turning to “Y[Aib]QGT[αMeF]TSD[4Pal][αMeS]I[αMeL]LD[Orn]K([AEEA-γGlu-C18 diacid])AQ[αMe4Pal]EFI[dE][αMeY]LIEGGPSSGAPPPSGGGE-NH2 [Example 1168]”, the EC50 at hGLP-1R [1] (setting [5]) came out at 0.422 nM; at hGcgR (setting [5]) it was 2.63 nM; at hGIPR [2], 0.999 nM; at hGIPR [3] (setting [5]), 0.00839 nM; on human GcgR it was 364 nM; on hGLP-1R [4], 65.4 nM.

As to “H-Y[Aib]QGT[αMePhe(2-F)]TSD[4Pal][αMeS]ILLD[Orn]K([γGlu-γGlu-C18 diacid])AQ[Aib][Orn]FI[dE]YLIEGGPSSGEPPPEGTEE-NH2 [Example 556]”, the EC50 on hGLP-1R [1] came to 0.561 nM; on hGcgR it was 4.14 nM; on hGIPR [2], 5.51 nM; at hGIPR [3] it was 0.0866 nM; at human GcgR, 366 nM; at hGLP-1R [4] it was 47.4 nM.

Turning to “H-Y[Aib]QGT[αMePhe(2-F)]TSD[4Pal]SILLDKK([γGlu-γGlu-C18 diacid])AQ[Aib]AFIEYLEEGGPSSGEPPPSGTGE-NH2 [Example 607]”, the EC50 turned out to be 1.15 nM on hGLP-1R [1]; 8.91 nM on hGcgR; 6.63 nM on hGIPR [2]; 0.0879 nM on hGIPR [3]; 565 nM at human GcgR; 139 nM on hGLP-1R [4].

As for “H-Y[Aib]QGTFTSD[4Pal]SQ[αMeL]LD[Orn]K([γGlu-γGlu-C18 diacid])AQ[αMe4Pal]AFIEYLIE[dA]GPSSGAPPPSGS-NH2 [Example 1017]”, the EC50 at hGLP-1R [1] (setting [5]) is 1.16 nM; on hGcgR (setting [5]), 6.47 nM; at hGIPR [2] it was 28.3 nM; on hGIPR [3] (setting [5]), 0.228 nM; at human GcgR it was 649 nM; on hGLP-1R [4] it was 118 nM.

Take “H-Y[Aib]QGTFTSD[4Pal]SQ[αMeL]LD[Orn]K([AEEA-γGlu-C18 diacid])AQ[αMe4Pal]AFIEYLIA[Aib]GPSSGEPPPSGSEE-NH2 [Example 1095]”: the EC50 on hGLP-1R [1] (setting [5]) is 1.17 nM; on hGcgR (setting [5]) it was 2.75 nM; at hGIPR [2], 8.73 nM; at hGIPR [3] (setting [5]), 0.065 nM; at human GcgR it was 337 nM; on hGLP-1R [4] it was 159 nM.

The values are drawn from patent US20240270821A1, “GIP/GLP1/GCG TRI-RECEPTOR AGONISTS AND USES THEREOF” (priority 2023, published 2024).
